Data taken from patent publication US8993574B2, “Pyrrole antifungal agents” (F2G Ltd, priority 2008, dated 2015).

System: Aspergillus fumigatus AF293
Test: MIC, YAG medium
Assay type: cell-based
Settings: Aspergillus fumigatus, 24 h at 35° C, MIC banded into grades, read-out: MIC grade, A. fumigatus
Method in brief: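 Growth inhibition was measured by absorbance at 485 nm following 24 h at 35° C. Spores harvested after 5 days on Sabouraud agar served as inoculum (1−2×10^4 cfu/mL, YAG medium). The lowest drug level producing >70% inhibition was taken as MIC.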

SMILES: Cc1cc(C)nc(N2CCN(c3ccc(NC(=O)C(=O)c4c(-c5ccccc5)cc(C)n4C)cc3)CC2)c1 [Example 1, 2-(1,5-Dimethyl-3-phenyl-1H-pyrrol-2-yl)-N-{4-[4-(4,6-dimethyl-pyridin-2-yl)-piperazin-1-yl]-phenyl}-2-oxo-acetamide]
- MIC: < 1 µg/mL
